Assay results from paper PMC9939304 (Acta Pharmaceutica Sinica. B, 2022).
Where two headings read alike, the source gives them in different places. Marks after values point to notes of the source that are not given here. Each block holds one compound with its values, some of them ahead of it.

What was measured:
OCT2 protein [1] = assay: OCT2 protein expression in Caco-2 cells; assay type: cell-based, human; settings: 48 h; for Expressions of OCT2 protein, 5 bile salts tested: CDCA 100, CA 100, DCA 50, HDCA 100, GCA 100 μmol/L; for Expressions of OCT2 protein by FXR agonists: CDCA 100, bilirubin 50, GW4064 1 μmol/L
Mate1 = assay: Renal Mate1 protein expression in treated rats; assay type: in vivo, rat; settings: 14 days: CDCA 180 mg/kg qd oral
Oct2 protein [2] = assay: Oct2 protein expression in primarily cultured rat hepatocytes; assay type: cell-based; settings: for Expressions of Oct2 protein: CDCA, bilirubin or GW4064
OCT1 protein [3] = assay: OCT1 protein expression in HepG2 cells; assay type: cell-based, human; settings: for Concentration-dependent effect on expressions of OCT1 protein: 48 h, CDCA 25, 50, 100 μmol/L, bilirubin 1, 10, 50 μmol/L
Oct1 protein [4] = assay: Oct1 protein expression in primarily cultured rat hepatocytes; assay type: cell-based; settings: for Expressions of Oct1 protein: CDCA, bilirubin or GW4064
OCT2 protein [5] = assay: OCT2 protein expression in HK-2 cells; assay type: cell-based, human; settings: 48 h; for Expressions of OCT2 protein by FXR agonists: CDCA 100, bilirubin 50, GW4064 1 μmol/L
FXR [6] = target: T1, FXR (Homo sapiens, UniProt Q96RI1); assay type: cell-based; settings: HK-2 cells
T1 sequence (Q96RI1 1-486): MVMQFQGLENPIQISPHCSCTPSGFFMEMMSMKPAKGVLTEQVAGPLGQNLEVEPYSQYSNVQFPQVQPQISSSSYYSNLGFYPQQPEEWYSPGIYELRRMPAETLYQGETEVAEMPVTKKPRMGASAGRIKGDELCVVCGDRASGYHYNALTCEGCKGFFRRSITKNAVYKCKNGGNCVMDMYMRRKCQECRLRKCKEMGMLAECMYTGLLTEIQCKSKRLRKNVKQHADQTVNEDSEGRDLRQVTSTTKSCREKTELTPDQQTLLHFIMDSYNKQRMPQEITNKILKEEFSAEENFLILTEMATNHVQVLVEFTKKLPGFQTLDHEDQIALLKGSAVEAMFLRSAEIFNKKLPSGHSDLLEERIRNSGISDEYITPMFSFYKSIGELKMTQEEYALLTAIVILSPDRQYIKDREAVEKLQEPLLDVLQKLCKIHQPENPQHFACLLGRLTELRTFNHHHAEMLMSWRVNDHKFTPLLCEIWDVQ

FXR protein = FXR protein expression in HK-2 cells; assay type: cell-based, human
Oct2/3 [7] = settings: Sham rats
Oct2/3 [8] = target: T2, Oct2/3 (Rattus norvegicus, UniProt Q9R0W2); settings: corticosterone 5 mg/kg ip, normal rats; iv metformin 10 mg/kg
T2 sequence (Q9R0W2 1-555): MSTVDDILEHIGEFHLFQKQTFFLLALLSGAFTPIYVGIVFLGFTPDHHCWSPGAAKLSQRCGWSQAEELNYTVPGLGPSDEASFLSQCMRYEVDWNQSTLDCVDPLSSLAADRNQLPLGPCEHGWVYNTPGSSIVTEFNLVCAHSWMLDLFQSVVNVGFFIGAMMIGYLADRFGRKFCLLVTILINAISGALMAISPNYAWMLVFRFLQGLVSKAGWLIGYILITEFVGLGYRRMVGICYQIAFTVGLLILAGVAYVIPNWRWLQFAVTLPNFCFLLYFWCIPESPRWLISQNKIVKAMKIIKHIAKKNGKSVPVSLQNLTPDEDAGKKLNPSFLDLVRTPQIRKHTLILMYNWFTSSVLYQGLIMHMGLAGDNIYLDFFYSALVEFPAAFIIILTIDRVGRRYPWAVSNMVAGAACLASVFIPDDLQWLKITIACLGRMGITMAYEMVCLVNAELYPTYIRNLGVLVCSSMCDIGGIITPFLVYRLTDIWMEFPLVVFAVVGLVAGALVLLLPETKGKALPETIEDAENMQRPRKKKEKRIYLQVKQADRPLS

Oct1 = Oct1 (Rattus norvegicus, UniProt Q63089); assay: in vitro; settings: probe metformin (100 μmol/L)
Chain of Oct1 (Q63089 whole entry): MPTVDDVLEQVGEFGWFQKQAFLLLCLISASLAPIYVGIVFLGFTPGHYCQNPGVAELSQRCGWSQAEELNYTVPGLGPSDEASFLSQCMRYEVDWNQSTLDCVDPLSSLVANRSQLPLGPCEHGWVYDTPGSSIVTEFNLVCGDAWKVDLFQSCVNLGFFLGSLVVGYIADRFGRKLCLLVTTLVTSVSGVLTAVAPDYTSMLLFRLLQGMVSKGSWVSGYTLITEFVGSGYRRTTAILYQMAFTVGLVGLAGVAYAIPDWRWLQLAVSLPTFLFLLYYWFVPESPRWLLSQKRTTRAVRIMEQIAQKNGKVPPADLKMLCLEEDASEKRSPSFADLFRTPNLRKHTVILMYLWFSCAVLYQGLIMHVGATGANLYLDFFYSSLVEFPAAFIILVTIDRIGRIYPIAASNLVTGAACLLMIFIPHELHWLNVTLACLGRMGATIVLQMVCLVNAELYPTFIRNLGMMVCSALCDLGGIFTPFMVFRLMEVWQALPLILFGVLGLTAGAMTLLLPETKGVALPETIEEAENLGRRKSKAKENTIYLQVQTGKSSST

Oct3 = target: T3, Oct3 (Rattus norvegicus, UniProt O88446); settings: estradiol 1 μmol/L with metformin 50 μg/mL; Sham rats
T3 sequence (O88446 1-551): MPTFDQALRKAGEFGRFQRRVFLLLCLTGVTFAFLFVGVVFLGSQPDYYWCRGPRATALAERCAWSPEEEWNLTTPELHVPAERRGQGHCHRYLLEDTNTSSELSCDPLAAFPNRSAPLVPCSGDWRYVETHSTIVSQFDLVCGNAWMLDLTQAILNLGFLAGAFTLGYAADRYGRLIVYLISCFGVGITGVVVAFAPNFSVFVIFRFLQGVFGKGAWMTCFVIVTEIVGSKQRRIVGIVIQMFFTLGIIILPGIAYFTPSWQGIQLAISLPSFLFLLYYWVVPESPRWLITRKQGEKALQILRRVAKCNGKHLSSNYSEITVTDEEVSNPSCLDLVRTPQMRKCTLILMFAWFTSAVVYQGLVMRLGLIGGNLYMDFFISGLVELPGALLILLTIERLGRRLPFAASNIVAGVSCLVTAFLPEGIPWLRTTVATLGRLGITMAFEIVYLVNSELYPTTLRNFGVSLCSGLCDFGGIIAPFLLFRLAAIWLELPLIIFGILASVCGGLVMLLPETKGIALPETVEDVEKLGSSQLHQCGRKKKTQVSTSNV

[9] = oral metformin 40 mg/kg
rat kidney slices = assay: Uptake of metformin by precision-cut kidney slices; assay type: in vitro ADME; settings: metformin 50 μg/mL, 15 min, 37 °C; slices from BDL rats
FXR [10] = target: T1, FXR; assay type: cell-based; settings: HepG2 cell
Oct2 = assay type: in vivo, rat; settings: stigmasterol 200 mg/kg qd plus CDCA 180 mg/kg qd oral, 14 days
[11] = assay type: in vivo, rat; settings: stigmasterol 200 mg/kg qd plus CDCA 180 mg/kg qd oral, 14 days
[12] = endogenous thiamine; BDL rats
[13] = thiamine 20 μg/mL perfusion
[14] = CON rats of CDCA study (Table S5)

- Expressions of FGF19 mRNA (FXR [6]; MCA): slight inhibits
- Expressions of SHP mRNA (FXR [6]; MCA): significantly downregulates
Compound: C[C@H](CCC(=O)NCC(=O)O)[C@H]1CC[C@H]2[C@@H]3[C@@H](O)[C@@H](O)[C@@H]4C[C@H](O)CC[C@]4(C)[C@H]3CC[C@]12C [MCA, glycine-β-muricholic acid]
- Effect on induction of OCT2 protein by bilirubin, CDCA and GW4064 (OCT2 protein [1]; MCA 100 μmol/L): remarkably attenuated
- Effect on upregulation of Oct2 protein by CDCA, bilirubin and GW4064 (Oct2 protein [2]; MCA): remarkably attenuated
- Effect on decreases in OCT1 by CDCA, bilirubin and GW4064 (OCT1 protein [3]; MCA): remarkably reversed
- Effect on downregulation of Oct1 protein by CDCA, bilirubin and GW4064 (Oct1 protein [4]; MCA): remarkably attenuated
- Effect on increase of OCT2 protein by CDCA, bilirubin and GW4064 (OCT2 protein [5]; MCA 100 μmol/L): reversed

- Expressions of SHP and FGF19 mRNA (FXR [6]): significantly upregulate
Compound: C=CC1=C(C)/C(=C/c2[nH]c(Cc3[nH]c(/C=C4\NC(=O)C(C)=C4C=C)c(C)c3CCC(=O)O)c(CCC(=O)O)c2C)NC1=O [bilirubin]
- Expressions of Oct2 protein (Oct2 protein [2]): upregulate expressions of Oct2 protein
- Concentration-dependent effect on expressions of OCT1 protein (OCT1 protein [3]): concentration-dependently downregulate
- Expressions of Oct1 protein (Oct1 protein [4]): downregulate expressions of Oct1 protein
- Expressions of FXR protein (FXR protein): can induce
- Expressions of OCT2 protein by FXR agonists (OCT2 protein [5]): increase expressions of OCT2 protein

- In vivo hepatic uptake clearance of metformin with corticosterone (Oct2/3 [8]): 50 % of CON rats
Compound: C[C@]12C[C@H](O)[C@H]3[C@@H](CCC4=CC(=O)CC[C@@]43C)[C@@H]1CC[C@@H]2C(=O)CO [corticosterone]
- Intestinal absorption (Peff) of metformin with inhibitor (Oct2/3 [7]; corticosterone 4 μmol/L with metformin 50 μg/mL): 60 % of control rats
- Effect on Peff values of thiamine (Oct2/3 [7]; corticosterone 4 μmol/L with thiamine 20 μg/mL): significantly decrease

- inhibition at 1.5 min, 20 μmol/L (Oct1; primary hepatocytes from BDL rats): 25.2%
- inhibition at 1.5 min, 20 μmol/L (Oct1; primary hepatocytes from Sham rats): 58.7%
Compound: NCCc1ccc(O)c(O)c1 [dopamine]

- Effect on Peff of metformin (Oct3): does not affect
Compound: C[C@]12CC[C@@H]3c4ccc(O)cc4CC[C@H]3[C@@H]1CC[C@@H]2O [estradiol]

- AUC ([9]; CDCA-treated rats (Table S5)): 906.85 ± 52.16 µg·min/mL
- Cmax ([9]; CDCA-treated rats (Table S5)): 4360 ± 380 ng/mL
- AUC [9, 14]: 707.20 ± 30.01 µg·min/mL
- Cmax [9, 14]: 3190 ± 120 ng/mL
- V1 (BDL rat, same value as Sham): 102.99 mL
- V1 (Sham rat, 250 g, estimated from original data): 102.99 ^j mL
- Uptake of metformin in renal slice, BDL vs Sham (rat kidney slices): significantly increases
Compound: CN(C)C(=N)N=C(N)N [metformin]

- Effect on upregulation of SHP and FGF19 mRNA by CDCA (FXR [10]; co-administration of stigmasterol with CDCA): significantly reversed
- mRNA expressions of SHP and FGF19, stigmasterol alone (FXR [10]; stigmasterol 100 μmol/L): little affects
- Effect on CDCA-induced increase in levels of blood thiamine [11]: attenuated
Compound: CC[C@H](/C=C/[C@@H](C)[C@H]1CC[C@H]2[C@@H]3CC=C4C[C@@H](O)CC[C@]4(C)[C@H]3CC[C@]12C)C(C)C [stigmasterol]
- Effect on the increased expressions of intestinal Oct2 protein by CDCA (Oct2): attenuates

- Urinary excreted amount of thiamine during 6 h, BDL relative to Sham [12]: 187 % of Sham rats
- Peff values of thiamine in BDL rats vs Sham [13]: significantly decrease
Compound: Cc1ncc(C[n+]2csc(CCO)c2C)c(N)n1 [thiamine]

Second part, the compound before the results:

Compound: C[C@H](CCC(=O)O)[C@H]1CC[C@H]2[C@@H]3[C@H](O)C[C@@H]4C[C@H](O)CC[C@]4(C)[C@H]3C[C@H](O)[C@]12C [CA, Cholic acid]
- Expressions of OCT2 protein, 5 bile salts tested (OCT2 protein [1]): only CDCA remarkably induces

Compound: C[C@H](CCC(=O)O)[C@H]1CC[C@H]2[C@@H]3[C@H](O)C[C@@H]4C[C@H](O)CC[C@]4(C)[C@H]3CC[C@]12C [CDCA, chenodeoxycholic acid]
- Expressions of renal Mate1 protein in treated rats (Mate1): unaltered
- Concentration-dependent effect on expressions of OCT2 (OCT2 protein [1]; CDCA 25, 50, 100 μmol/L, bilirubin 10, 25, 50 μmol/L): concentration-dependently increase
- Expressions of OCT2 protein, 5 bile salts tested (OCT2 protein [1]): remarkably induces
- Expressions of OCT2 protein by FXR agonists (OCT2 protein [1]): induce expressions of OCT2 protein
- Expressions of Oct2 protein (Oct2 protein [2]): upregulate expressions of Oct2 protein
- Concentration-dependent effect on expressions of OCT1 protein (OCT1 protein [3]): concentration-dependently downregulate
- Expressions of Oct1 protein (Oct1 protein [4]): downregulate expressions of Oct1 protein
- Expressions of OCT2 protein by FXR agonists (OCT2 protein [5]): increase expressions of OCT2 protein

Compound: C[C@H](CCC(=O)O)[C@H]1CC[C@H]2[C@@H]3CC[C@@H]4C[C@H](O)CC[C@]4(C)[C@H]3C[C@H](O)[C@]12C [DCA, Eeoxycholic acid]
- Expressions of OCT2 protein, 5 bile salts tested (OCT2 protein [1]): only CDCA remarkably induces

Compound: C[C@H](CCC(=O)NCC(=O)O)[C@H]1CC[C@H]2[C@@H]3[C@H](O)C[C@@H]4C[C@H](O)CC[C@]4(C)[C@H]3C[C@H](O)[C@]12C [GCA, Glycocholic acid]
- Expressions of OCT2 protein, 5 bile salts tested (OCT2 protein [1]): only CDCA remarkably induces

Compound: CC(C)c1onc(-c2c(Cl)cccc2Cl)c1COc1ccc(/C=C/c2cccc(C(=O)O)c2)c(Cl)c1 [GW4064]
- Expressions of OCT2 protein by FXR agonists (OCT2 protein [1]): induce expressions of OCT2 protein
- Expressions of Oct2 protein (Oct2 protein [2]): upregulate expressions of Oct2 protein
- Expressions of OCT1 protein (OCT1 protein [3]; GW4064): also downregulates
- Expressions of Oct1 protein (Oct1 protein [4]): downregulate expressions of Oct1 protein
- Expressions of OCT2 protein by FXR agonists (OCT2 protein [5]): increase expressions of OCT2 protein

Compound: C[C@H](CCC(=O)O)[C@H]1CC[C@H]2[C@@H]3C[C@H](O)[C@@H]4C[C@H](O)CC[C@]4(C)[C@H]3CC[C@]12C [HDCA, Hyodeoxycholic acid]
- Expressions of OCT2 protein, 5 bile salts tested (OCT2 protein [1]): only CDCA remarkably induces
